Values quoted from earlier work, collected in patent US5807857A, “Piperazine, piperidine and tetrahydropyridine derivative of indol-3-alkyl as 5-HT1D-α agonists” (Merck Sharp & Dohme Ltd., priority 1994, dated 1998).

Columns and labels:
[1] = test system: human 5-HT1Dα and 5-HT1Dβ receptor subtypes; details: cf. WO-A-91/17174, Table 1
[2] = administration to humans at therapeutic doses

- discrimination between the human 5-HT1Dα and 5-HT1Dβ receptor subtypes [1]: barely discriminates
Compound: CNS(=O)(=O)Cc1ccc2[nH]cc(CCN(C)C)c2c1 [sumatriptan]
- adverse cardiovascular events in humans [2]: certain adverse cardiovascular events
